# Key:
# Format in all cases: physicochemical
# [1] = Short term stability study at ICH conditions, characterised by XRPD
# Experimental: A short term stability study was conducted at two International Conference on Harmonization (ICH) stability conditions, i.e. 25° C./60% relative humidity and 40° C./75% relative humidity. A thin layer of powder was placed in a 20 mL capped glass scintillation vial, and the vials were placed in a sealed desicator that was set to either 25 or 40° C., and to the desired relative humidity over the appropriate saturated salt solution^32. Relative humidities of 60% and 75% were obtained using sodium bromide or sodium chloride, respectively. After initial storage (4 days), the samples were removed and characterized by XRPD. The samples were then returned to appropriate desicator and stored for another 19 days with the caps removed. Final sample characterization was by SEM and XRPD.
# [2] = Powder flow properties: bulk density, tapped density, compressibility (modified USP procedure); settings: for Percent Compressibility: computed from bulk density and tapped density (equation 3)
# Experimental: Bulk densities of selected samples were measured using a modified USP procedure. A mass of sample (M), typically 0.5 g, was passed through a No. 18 test sieve (ASTM USA Standard Test Sieve, Fischer Scientific) into a tared 10 mL graduated cylinder. The powder was carefully leveled and the unsettled apparent volume (Vo) was read to the nearest 0.05 mL. The bulk density (ρb) was then calculated using equation 1: [formula] Each bulk density measurement was performed in triplicate, and the average value was reported. Tapped densities of selected samples were also obtained using a modified USP procedure. After the bulk density had been determined from the procedure described above, the graduate cylinder was mechanically tapped by raising the cylinder and allowing it to drop under its own weight using an apparatus that provided a fixed drop height of 14±2 mm. The nominal tap rate was 60 drops per minute. The cylinder was initially tapped 500 times and the tapped volume (VT) was read to the nearest 0.05 mL. The procedure was then repeated, in increments of 500 taps, until the difference between succeeding measurements was less than 2%. The tapped density (ρt) was then calculated using equation 2: [formula] Each tapped density measurement was performed in triplicate, and the average values for each sample is reported. Powder compressibility was computed from the bulk density and tapped density using equation 3: [formula] Determination of Griseofulvin Content in the Powder Samples
# Powder flow properties, as represented by the bulk density, tapped density, and percent compressibility, were determined for selected samples and are shown in Table 2.0, in which GF is griseofluvin and the PSA:GF ratio was based on the original mass charged to the crystallizer. Absent values from the table indicate inadequate sample volume for the measurement technique.
# [3] = BET surface area measurement (nitrogen adsorption at 77 K); settings: nitrogen adsorbate, PSA:GF ratio based on mass charged to crystallizer
# Experimental: A Quantachrome Autosorb-IC (Boynton Beach, Fla.) was used to measure surface areas of the samples at 77 K. A known amount of powder (typically 500 mg) was loaded into a Quantachrome powder cell and outgassed for about 1 hr. Nitrogen was used as the adsorbate, and the equations derived by Brunauer, Emmett, and Teller (BET) were used by the software provided with the instrument to calculate the specific surface areas.
structure (smiles),measurement,setting,value
"COC1=CC(=O)C[C@@H](C)[C@]12Oc1c(Cl)c(OC)cc(OC)c1C2=O [Bulk GF, griseofulvin]",XRPD diffraction pattern after storage (phase change),[1]; stored for 23 days at 25° C./60% RH,No new peaks
same,XRPD diffraction pattern after storage (phase change),[1]; stored for 23 days at 40° C./75% RH,No new peaks
same,Bulk Density,[2]; average of triplicate,0.2 ± 0.02 g/mL
same,Tapped Density,"[2]; average of triplicate, tapped in increments of 500 taps",0.4 ± 0.02 g/mL
same,Percent Compressibility,[2],49 +/− 3%
same,Percent Compressibility,[2]; listed as bulk griseofulvin,49±3%
same,BET-Surface Area,[3],2.98 m^2/g
